# Data from patent publication US20250213569A1, “METHODS AND COMPOSITIONS FOR MEASURING AND INHIBITING EXONUCLEASE ACTIVITY” (priority 2020, published 2025).
# Read-outs that look alike come from different tables or passages of the source.
# How the values were obtained:
# A549 cells [1] = assay: AlamarBlue viability assay; details: A549 human lung cells, 48 hours
# A549 cells [2] = system: A549 cells
# unbound NSP10 = assay: FRET-based activity assay, non-specific background of unbound NSP10; format: biochemical; details: dose-response, FIG. 11B
# [3] = target: SARS-CoV2 NSP14/NSP10 exonuclease (Severe acute respiratory syndrome coronavirus 2 (2019-nCoV) (SARS-CoV-2), UniProt P0DTD1); assay: biochemical; set-up: inhibition of NSP14/NSP10 complex exonuclease activity: dose or concentration left out as unconfirmed; details: for Inhibitory activity present: class symbols − to +++++, key not given
# NSP14/10 complex = NSP14/10 complex (Severe acute respiratory syndrome coronavirus 2 (2019-nCoV) (SARS-CoV-2), UniProt P0DTD1); assay: Gel electrophoresis assay of Oligo B digestion; format: biochemical; details: for NSP14/NSP10 complex inhibitory potential (gel): concentrations as in FIG. 55
# SARS-CoV2 = format: cell-based; details: A549-ACE2 cells; #112: 60 μM, #77: […] μM, #68: 25 μM
# HCoV-OC43 = HCoV-OC43 infection of HMC3 cells, combination with remdesivir; format: cell-based; details: #112: 60 μM, #77: […] μM, #68: 25 μM
# [4] = Solubility issue (Table 2)
# [5] = Oligo D, linear reaction range, less than 60% of total substrate consumed at readout, read-out: half maximal inhibitory concentration (IC50)
# [6] = Table 2, read-out: SARS-CoV2 IC50
structure (smiles),measurement,setting,value
"O=C(/C=C/c1ccc(O)cc1)c1c(O)cc(O)cc1O [Compound 73, Naringenin chalcone]",Toxicity at IC50,A549 cells [1],Yes
"O=C(O)c1ccc2ccc(CCc3ccc(O)c(O)c3)nc2c1O [Compound 94, 2-(3,4-dihydroxyphenethyl)-8-hydroxyquinoline-7-carboxylic acid]",Toxicity at IC50,A549 cells [1],No
"CC(C)=CCc1c2c(c3occ(-c4ccc(O)c(O)c4)c(=O)c3c1O)C=CC(C)(C)O2 [Compound 69, Pomiferin]",Toxicity at IC50,A549 cells [2],Yes
"O=C1Cc2ccccc2C(=O)N1O [Compound 13, 2-Hydroxyisoquinoline-1,3(2H,4H)-dione]",Toxicity at IC50,A549 cells [1],Yes
same,inhibition of non-specific background of NSP10,unbound NSP10,did not inhibit the non-specific background of NSP10
same,inhibition of NSP14/NSP10 complex exonuclease activity,[3]; Oligo E (TexasRed-BHQ2),showed inhibition
same,"Inhibition of NSP14/10 (Oligo B digestion, gel)",NSP14/10 complex; 500 μM versus 100 μM,greater at higher (500 μM) versus lower (100 μM) concentrations
"O=C(O)c1ccc2ccc(/C=C/c3ccc(O)c(O)c3)nc2c1O [Compound 79, 2-(3,4-dihydroxystyryl)-8-hydroxyquinoline-7-carboxylic acid]",Toxicity at IC50,A549 cells [1],No
"CC(C)=CCc1c(O)ccc(C(=O)/C=C/c2ccc(O)cc2)c1O [Compound 77, Isobavachalcone]",Toxicity at IC50,A549 cells [1],some
same,lowering of the EC50 values of remdesivir,SARS-CoV2,~5 fold
same,IC50,[3]; read-out: SARS-CoV2 IC50,17.4 ± 1.39 µM
same,NSP14/NSP10 complex inhibitory potential (gel),NSP14/10 complex,indeed novel NSP14 inhibitors
same,lowering of the EC50 values of remdesivir,HCoV-OC43,~5 fold
"O=C(NCc1ccc(F)cc1)C1C(=O)N(O)C(=O)c2cc(C(F)(F)F)ccc21 (stereo not shown) [Compound 112, 7-trifluoromethyl-N-(4-fluorobenzyl)-2-hydroxy-1,3-dioxo-4H-isoquinoline-4-carboxamide]",lowering of the EC50 values of remdesivir,SARS-CoV2,~5 fold
same,NSP14/NSP10 complex inhibitory potential (gel),NSP14/10 complex,indeed novel NSP14 inhibitors
same,lowering of the EC50 values of remdesivir,HCoV-OC43,~5 fold
"CC(C)=CCc1cc(C(=O)/C=C/c2ccc(O)cc2)c(O)cc1O [Compound 57, Bavachalcone]",Toxicity at IC50,A549 cells [1],yes
"O=P(O)(O)c1ccc2ccc(CCc3ccc(O)c(O)c3)nc2c1O [Compound 100, 2-(3,4-dihydroxyphenethyl)-8-hydroxyquinoline-7-phosphonic acid]",Toxicity at IC50,A549 cells [1],No
"O=C(O)c1ccc2ccc(/C=C/c3cc(Br)c(O)c(Br)c3)nc2c1O [Compound 88, 2-(3,5-dibromo-4-hydroxystyryl)-8-hydroxyquinoline-7-carboxylic acid]",Toxicity at IC50,A549 cells [1],No
"O=C(O)c1ccc2nc(/C=C/c3ccc(O)c(O)c3)ccc2c1O [Compound 99, 2-(3,4-dihydroxystyryl)-5-hydroxyquinoline-6-carboxylic acid]",Toxicity at IC50,A549 cells [1],Yes
"O=c1cc(-c2ccc(O)cc2)oc2cc(O)c(O)c(O)c12 [Compound 62, Scutellarein]",Toxicity at IC50,A549 cells [1],no
O=c1oc2ccccc2c(O)c1Cc1c(O)c2ccccc2oc1=O [Dicoumarol],IC50,[3]; [5],> 500 µM
"O=C(O)c1cc(/C=C/c2ccc3ccc(C(=O)O)c(O)c3n2)ccc1O [Compound 90, 2-(3-carboxy-4-hydroxystyryl)-8-hydroxyquinoline-7-carboxylic acid]",Toxicity at IC50,A549 cells [1],No
"O=c1oc2ccccc2c(O)c1Cc1c(O)c2ccccc2oc1=O [Compound 23, Dicoumarol, reference compound]",IC50,[3]; [6],> 500 µM
"Oc1ccc(CC2NCCc3cc(O)c(O)cc32)cc1O (stereo not shown) [Compound 54, Tetrahydropapaveroline]",Toxicity at IC50,A549 cells [1],no
same,Solubility issue,[4],no
same,NSP14/NSP10 complex inhibitory potential (gel),NSP14/10 complex,indeed novel NSP14 inhibitors
"O=C(O)c1cc2cc(-c3ccccc3)ccc2[nH]c1=O [Compound 53, 2-Oxo-6-phenyl-1H-quinoline-3-carboxylic acid]",Toxicity at IC50,A549 cells [1],no
"CC1(C)CCc2c(O)ccc(C(=O)/C=C/c3ccc(O)cc3)c2O1 [Compound 75, Isodorsmanin A]",Toxicity at IC50,A549 cells [1],Yes
CC(C)=CCc1c2c(c3occ(-c4ccc(O)c(O)c4)c(=O)c3c1O)C=CC(C)(C)O2 [Pomiferin],IC50,[3]; [5],5.9 µM
"Oc1ccc(/C=C/c2ccc3cccc(O)c3n2)cc1O [Compound 92, 2-(3,4-dihydroxystyryl)-8-hydroxyquinoline]",Toxicity at IC50,A549 cells [1],Yes
"O=C(O)c1c(O)c(Cc2ccc(Cl)cc2)nc2c3c(ccc12)CCCC3 [Compound 59, 2-(4-Chlorobenzyl)-3-hydroxy-7,8,9,10-tetrahydrobenzo(H)quinoline-4-carboxylic acid]",Toxicity at IC50,A549 cells [1],yes
"O=c1c2[nH]c3ccccc3c2ncn1CCc1ccc(F)cc1 [Compound 105, 3-[2-(4-Fluorophenyl)ethyl]-3,5-dihydro-4H-pyrimido[5,4-b]indol-4-one]",IC50,[3]; [6],217 µM
"CC(C)c1cc(Cc2cc(C(C)C)cc(C(=O)O)c2O)c(O)c(C(=O)O)c1 [Compound 65, 3-[(3-Carboxy-2-hydroxy-5-propan-2-ylphenyl)methyl]-2-hydroxy-5-propan-2-ylbenzoic acid]",Toxicity at IC50,A549 cells [1],no
"O=C(O)c1ccc2ccc(/C=C/c3ccc(F)c(F)c3)nc2c1O [Compound 89, 2-(3,4-difluorostyryl)-8-hydroxyquinoline-7-carboxylic acid]",Toxicity at IC50,A549 cells [1],Yes
"O=C(O)c1cc(Cc2ccc(O)c(C(=O)O)c2)ccc1O [Compound 30, 5,5′-Methylenedisalicylic acid]",Toxicity at IC50,A549 cells [1],No
CC(C)=CCOc1ccc(/C=C/C(=O)c2ccc(OCC=C(C)C)cc2OCC(=O)O)cc1 [Sofalcone],IC50,[3]; [5],28.8 µM
CC(C)=CCc1c(O)ccc(C(=O)/C=C/c2ccc(O)cc2)c1O [Isobavachalcone],IC50,[3]; [5],16.6 µM
"O=C(c1ccc(F)c(F)c1)c1ccc2ccc(/C=C/c3ccc(O)c(O)c3)nc2c1O [Compound 93, 7-(3,4-difluorobenzoyl)-2-(3,4-dihydroxyvinyl)-8-hydroxyquinoline]",Toxicity at IC50,A549 cells [1],Yes
"COc1cc(O)c(CC=C(C)C)c(O)c1C(=O)/C=C/c1ccc(O)cc1 [Compound 58, Xanthohumol]",Toxicity at IC50,A549 cells [1],yes
"CC(C)=CCc1c(O)ccc(C(=O)/C=C/c2ccc(O)c(O)c2)c1O [Compound 72, Corylifol B]",Inhibitory activity present,[3],+++/ ++++
"Cc1ccc2ccc(C(=O)O)c(O)c2n1 [Compound 78, 2-methyl-8-hydroxyquinoline-7-carboxylic acid]",Toxicity at IC50,A549 cells [1],No
"CC(C)=CCc1c(O)ccc(C(=O)/C=C/c2ccc(O)cc2O)c1O [Compound 74, Morachalcone A]",Toxicity at IC50,A549 cells [1],Yes
"CC(C)=CCc1c(O)cc(O)c(C(=O)/C=C/c2ccc(O)cc2)c1O [Compound 71, Desmethylxanthohumol]",Toxicity at IC50,A549 cells [1],Yes
same,Inhibitory activity present,[3],+++/ ++++
"COc1ccc2nc(O)c(-c3noc(-c4ccc(F)cc4)n3)cc2c1 [Compound 109, 3-(5-(4-Fluorophenyl)-1,2,4-oxadiazol-3-yl)-6-methoxyquinolin-2-ol]",Solubility issue,[4],No
"O=C(/C=C/c1ccc(O)c(O)c1)c1ccc(O)c(O)c1O [Compound 76, Okanin]",Toxicity at IC50,A549 cells [1],Yes
"O=C(NCc1ncc[nH]1)c1c(O)cnc2ccccc12 [Compound 31, 3-Hydroxy-N-[(1H-imidazol-2-yl)methyl]quinoline-4-carboxamide]",Toxicity at IC50,A549 cells [1],No
"CC(C)=CCOc1ccc(/C=C/C(=O)c2ccc(OCC=C(C)C)cc2OCC(=O)O)cc1 [Compound 68, Sofalcone, reference compound]",lowering of the EC50 values of remdesivir,SARS-CoV2,~5 fold
same,Toxicity at IC50,A549 cells [2],Some
same,IC50,[3]; read-out: SARS-CoV2 IC50,22 ± 6.02 µM
same,NSP14/NSP10 complex inhibitory potential (gel),NSP14/10 complex,indeed novel NSP14 inhibitors
same,lowering of the EC50 values of remdesivir,HCoV-OC43,~5 fold
"Cc1c(S(=O)(=O)[O-])oc2c1C(=O)C(=O)c1c-2ccc2c1CCCC2(C)C.[Na+] [Compound 60, Tanshinone IIA sulfonate]",Toxicity at IC50,A549 cells [1],no
same,Solubility issue,[4],no
